Patent US20220411439A1, “POLYMORPHS OF A MACROCYCLIC KINASE INHIBITOR” (TURNING POINT THERAPEUTICS, INC., priority 2019, published 2022)
Where two headings read alike, the source gives them in different places.

Columns and labels:
[1] = biological target: T1, Ba/F3 EML4-ALK (Homo sapiens, UniProt Q9UM73); assay: Cell proliferation assay (CellTiter-Glo); type: cell-based; conditions: anti-cell proliferation, 72 hours
T1 construct: fused on or other part: Q9HC35 (Echinoderm microtubule-associated protein-like 4)
Protocol: The EML4-ALK gene (variant 1) was synthesized at GenScript and cloned into pCDH-CMV-MCS-EF1-Puro plasmid (System Biosciences, Inc). Ba/F3-EML4-ALK wild type were generated by transducing Ba/F3 cells with lentivirus containing EML4-ALK wide type. Stable cell lines were selected by puromycin treatment, followed by IL-3 withdrawal. Briefly, 5×10^6 Ba/F3 cells were transduced with lentivirus supernatant in the presence of 8 μg/mL protamine sulfate. The transduced cells were subsequently selected with 1 μg/mL puromycin in the presence of IL3-containing medium RPMI1640, plus 10% FBS. After 10-12 days of selection, the surviving cells were further selected for IL3 independent growth.
(§1) Two thousand cells per well were seeded in 384 well white plate for 24 hrs, and then treated with compounds for 72 hours (37° C., 5% CO2). Cell proliferation was measured using CellTiter-Glo luciferase-based ATP detection assay (Promega) following the manufactures's protocol. IC50 determinations were performed using GraphPad Prism software (GraphPad, Inc., San Diego, Calif.).

[2] = system: KG-1; assay: Cell proliferation assay (CellTiter-Glo); type: cell-based; conditions: Homo sapiens, anti-cell proliferation, 72 hours
Protocol: as §1, with “Human medulla thyroid carcinoma cell line TT (containing RET M918T mutation) and acute myelogenous cell line KG-1 were purchased from ATCC. Human colon cancer cell line KM12 (containing TPM3-TRKA) was obtained from NCI. Two” for “Two”

[3] = system: KM12 cell (TPM3-TRKA); assay: Cell proliferation assay (CellTiter-Glo); type: cell-based; conditions: Homo sapiens, anti-cell proliferation, 72 hours
Protocol: as §1, with “Human medulla thyroid carcinoma cell line TT (containing RET M918T mutation) and acute myelogenous cell line KG-1 were purchased from ATCC. Human colon cancer cell line KM12 (containing TPM3-TRKA) was obtained from NCI. Two” for “Two”

[4] = system: TT cell (RET M918T); assay: Cell proliferation assay (CellTiter-Glo); type: cell-based; conditions: Homo sapiens, anti-cell proliferation, 72 hours
Protocol: as §1, with “Human medulla thyroid carcinoma cell line TT (containing RET M918T mutation) and acute myelogenous cell line KG-1 were purchased from ATCC. Human colon cancer cell line KM12 (containing TPM3-TRKA) was obtained from NCI. Two” for “Two”

[5] = biological target: T2, Ba/F3 KIF5B-RET_V804M (Homo sapiens, UniProt P07949, V804M, cells depend on it); assay: Cell proliferation assay (CellTiter-Glo); type: cell-based; conditions: anti-cell proliferation, 72 hours; read-out: Ba/F3 KIF5B-RET_V804M IC50
T2 construct: fused on or other part: P33176 (Kinesin-1 heavy chain)
Excerpt: (§2) The KIF5B-RET gene was synthesized at GenScript and cloned into pCDH-CMV-MCS-EF1-Puro plasmid (System Biosciences, Inc). KIF5B-RET point mutation V804M and G810C were generated at GenScript by PCR and confirmed by sequencing. Ba/F3-KIF5B-RET wild type and mutant were generated by transducing Ba/F3 cells with lentivirus containing KIF5B-RET wide type or mutant. Stable cell lines were selected by puromycin treatment, followed by IL-3 withdrawal. Briefly, 5×10^6 Ba/F3 cells were transduced with lentivirus supernatant in the presence of 8 μg/mL protamine sulfate. The transduced cells were subsequently selected with 1 μg/mL puromycin in the presence of IL3-containing medium RPMI1640, plus 10% FBS. After 10-12 days of selection, the surviving cells were further selected for […] independent growth.
as §1

[6] = biological target: T3, Ba/F3 KIF5B-RET_G810C (Homo sapiens, UniProt P07949, G810C, cells depend on it); assay: Cell proliferation assay (CellTiter-Glo); type: cell-based; conditions: anti-cell proliferation, 72 hours; read-out: Ba/F3 KIF5B-RET_G810C IC50
T3 construct: fused on or other part: P33176 (Kinesin-1 heavy chain)
Excerpt: as §2, §1

[7] = biological target: T4, Ba/F3 KIF5B-RET (Homo sapiens, UniProt P07949); assay: Cell proliferation assay (CellTiter-Glo); type: cell-based; conditions: anti-cell proliferation, 72 hours; read-out: Ba/F3 KIF5B-RET IC50
T4 construct: Ba/F3 KIF5B-RET IC50 (nM); other: anti-cell proliferation, 72 hours; fused on or other part: P33176 (Kinesin-1 heavy chain)
Excerpt: as §2, §1

[8] = biological target: T5, Ba/F3 KIF5B-RET (Homo sapiens, UniProt P07949, cells depend on it, form not given); assay: Compound I anti-cell proliferation comparison (FIG. 5A, 5B); type: cell-based; conditions: for GI50: read-out: IC50 (the source's name)
T5 construct: IC50 (nM); other: Experiment 1; other: Experiment 2; fused on or other part: P33176 (Kinesin-1 heavy chain)
Excerpt: as §2, §1

[9] = biological target: T6, FYN (Homo sapiens, UniProt P06241); assay: Biochemical kinase assay; conditions: 10 μM ATP
T6 construct: purchased Reaction Biology Corporation (contract assay)
Protocol: (§3) Specific kinase/substrate pairs along with required cofactors were prepared in reaction buffer; 20 mM Hepes pH 7.5, 10 mM MgCl2, 1 mM EGTA, 0.02% Brij35, 0.02 mg/ml BSA, 0.1 mM Na3VO4, 2 mM DTT, 1% DMSO. Compounds were delivered into the reaction, followed ˜20 minutes later by addition of a mixture of ATP (Sigma, St. Louis Mo.) and ^33P ATP (Perkin Elmer, Waltham Mass.) to a final concentration of 10 μM. Reactions were carried out at room temperature for 120 min, followed by spotting of the reactions onto P81 ion exchange filter paper (Whatman Inc., Piscataway, N.J.). Unbound phosphate was removed by extensive washing of filters in 0.75% phosphoric acid. […] IC50 values and curve fits were obtained using Prism (GraphPad Software).

[10] = biological target: T7, HCK (Homo sapiens, UniProt P08631); assay: Biochemical kinase assay; conditions: 10 μM ATP
T7 construct: purchased Reaction Biology Corporation (contract assay)
Protocol: as §3

[11] = biological target: T8, SRC (Homo sapiens, UniProt P12931); assay: Biochemical kinase assay; conditions: 10 μM ATP
T8 construct: purchased Reaction Biology Corporation (contract assay)
Protocol: as §3

[12] = biological target: T9, RET (Homo sapiens, UniProt P07949); assay: Biochemical kinase assay; conditions: 10 μM ATP
T9 construct: purchased Reaction Biology Corporation (contract assay)
Protocol: as §3

[13] = biological target: T10, LYN (Homo sapiens, UniProt P07948); assay: Biochemical kinase assay; conditions: 10 μM ATP
T10 construct: purchased Reaction Biology Corporation (contract assay)
Protocol: as §3

[14] = biological target: T11, RET-NCOA4 (PTC3) (Homo sapiens, UniProt P07949); assay: Biochemical kinase assay; conditions: 10 μM ATP
T11 construct: NCOA4 fragment (fusion partner); purchased Reaction Biology Corporation (contract assay)
Protocol: as §3

T5 sequence (P07949 whole entry G810C, form open, the tested form may be a part): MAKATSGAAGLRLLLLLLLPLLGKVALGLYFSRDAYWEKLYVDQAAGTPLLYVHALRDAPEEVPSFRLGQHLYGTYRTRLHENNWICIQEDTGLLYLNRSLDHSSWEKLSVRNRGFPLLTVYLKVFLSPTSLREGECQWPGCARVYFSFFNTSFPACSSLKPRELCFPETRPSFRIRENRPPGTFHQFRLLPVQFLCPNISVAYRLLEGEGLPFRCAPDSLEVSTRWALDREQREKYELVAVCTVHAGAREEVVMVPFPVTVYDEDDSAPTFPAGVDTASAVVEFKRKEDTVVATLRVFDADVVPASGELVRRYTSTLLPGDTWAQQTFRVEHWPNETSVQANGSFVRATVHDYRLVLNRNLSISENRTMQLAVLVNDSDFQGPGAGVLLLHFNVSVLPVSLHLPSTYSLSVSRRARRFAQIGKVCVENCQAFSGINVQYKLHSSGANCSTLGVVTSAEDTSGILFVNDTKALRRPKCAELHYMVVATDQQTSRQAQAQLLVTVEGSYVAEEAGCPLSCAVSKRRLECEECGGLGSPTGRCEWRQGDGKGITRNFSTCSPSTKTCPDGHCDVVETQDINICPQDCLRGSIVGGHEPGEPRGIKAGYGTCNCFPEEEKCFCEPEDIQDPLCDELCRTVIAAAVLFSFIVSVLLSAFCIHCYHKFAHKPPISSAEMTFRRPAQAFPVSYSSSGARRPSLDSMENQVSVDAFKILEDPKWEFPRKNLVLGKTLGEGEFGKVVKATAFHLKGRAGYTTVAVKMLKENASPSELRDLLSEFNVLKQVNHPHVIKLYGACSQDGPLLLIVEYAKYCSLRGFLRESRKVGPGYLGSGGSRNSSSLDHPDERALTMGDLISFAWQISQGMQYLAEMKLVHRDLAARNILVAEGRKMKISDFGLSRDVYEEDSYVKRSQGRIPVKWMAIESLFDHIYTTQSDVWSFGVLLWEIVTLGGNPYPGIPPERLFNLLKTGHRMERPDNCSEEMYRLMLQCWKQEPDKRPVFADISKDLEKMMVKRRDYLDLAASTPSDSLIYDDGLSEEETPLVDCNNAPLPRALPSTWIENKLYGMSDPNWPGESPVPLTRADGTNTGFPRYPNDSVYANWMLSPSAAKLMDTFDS
T9 sequence (P07949 29-1114): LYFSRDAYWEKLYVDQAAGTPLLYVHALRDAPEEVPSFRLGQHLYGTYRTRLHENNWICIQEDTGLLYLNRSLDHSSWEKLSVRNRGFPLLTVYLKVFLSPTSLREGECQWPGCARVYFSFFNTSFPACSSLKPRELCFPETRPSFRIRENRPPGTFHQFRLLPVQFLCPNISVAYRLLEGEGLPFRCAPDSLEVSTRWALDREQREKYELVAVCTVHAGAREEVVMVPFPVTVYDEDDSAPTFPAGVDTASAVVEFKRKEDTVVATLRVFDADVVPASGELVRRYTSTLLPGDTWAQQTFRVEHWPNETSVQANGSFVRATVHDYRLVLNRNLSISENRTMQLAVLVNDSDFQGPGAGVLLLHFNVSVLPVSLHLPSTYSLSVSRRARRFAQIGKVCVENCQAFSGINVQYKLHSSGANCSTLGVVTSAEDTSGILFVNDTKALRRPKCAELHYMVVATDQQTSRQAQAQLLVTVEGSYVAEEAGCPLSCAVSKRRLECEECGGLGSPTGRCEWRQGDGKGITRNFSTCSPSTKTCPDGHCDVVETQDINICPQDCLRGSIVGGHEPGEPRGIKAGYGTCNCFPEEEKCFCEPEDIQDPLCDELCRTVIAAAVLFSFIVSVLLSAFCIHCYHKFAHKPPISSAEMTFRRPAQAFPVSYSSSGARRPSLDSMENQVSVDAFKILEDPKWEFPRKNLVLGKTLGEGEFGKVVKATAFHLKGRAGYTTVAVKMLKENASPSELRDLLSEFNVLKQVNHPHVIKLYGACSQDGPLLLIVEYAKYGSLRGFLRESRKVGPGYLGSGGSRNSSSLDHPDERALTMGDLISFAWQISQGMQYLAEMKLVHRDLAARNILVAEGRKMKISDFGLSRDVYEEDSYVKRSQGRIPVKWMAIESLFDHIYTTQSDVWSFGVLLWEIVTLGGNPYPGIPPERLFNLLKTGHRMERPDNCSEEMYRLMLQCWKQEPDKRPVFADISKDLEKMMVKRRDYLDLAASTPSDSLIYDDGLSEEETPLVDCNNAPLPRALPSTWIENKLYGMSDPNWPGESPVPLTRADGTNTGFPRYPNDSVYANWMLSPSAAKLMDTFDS
T10 sequence (P07948 whole entry): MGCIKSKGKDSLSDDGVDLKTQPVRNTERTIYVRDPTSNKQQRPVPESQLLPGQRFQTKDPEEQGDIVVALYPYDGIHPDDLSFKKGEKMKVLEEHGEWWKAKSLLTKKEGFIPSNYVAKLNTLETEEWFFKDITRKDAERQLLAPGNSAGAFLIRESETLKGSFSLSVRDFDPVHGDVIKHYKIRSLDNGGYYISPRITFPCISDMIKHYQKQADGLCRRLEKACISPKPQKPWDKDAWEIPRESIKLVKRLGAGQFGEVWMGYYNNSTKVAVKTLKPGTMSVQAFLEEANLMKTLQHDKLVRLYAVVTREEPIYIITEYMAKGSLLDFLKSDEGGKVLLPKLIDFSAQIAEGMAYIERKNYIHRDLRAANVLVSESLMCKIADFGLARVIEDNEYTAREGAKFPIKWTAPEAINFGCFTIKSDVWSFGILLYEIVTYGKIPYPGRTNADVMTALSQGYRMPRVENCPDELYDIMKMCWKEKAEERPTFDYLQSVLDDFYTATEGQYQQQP
T4 sequence (P07949 whole entry, change not shown, the tested form may be a part): as the sequence (P07949 whole entry G810C, form open, the tested form may be a part) above, with C810G counted along it
T11 sequence (P07949 with tags, fused parts or gaps): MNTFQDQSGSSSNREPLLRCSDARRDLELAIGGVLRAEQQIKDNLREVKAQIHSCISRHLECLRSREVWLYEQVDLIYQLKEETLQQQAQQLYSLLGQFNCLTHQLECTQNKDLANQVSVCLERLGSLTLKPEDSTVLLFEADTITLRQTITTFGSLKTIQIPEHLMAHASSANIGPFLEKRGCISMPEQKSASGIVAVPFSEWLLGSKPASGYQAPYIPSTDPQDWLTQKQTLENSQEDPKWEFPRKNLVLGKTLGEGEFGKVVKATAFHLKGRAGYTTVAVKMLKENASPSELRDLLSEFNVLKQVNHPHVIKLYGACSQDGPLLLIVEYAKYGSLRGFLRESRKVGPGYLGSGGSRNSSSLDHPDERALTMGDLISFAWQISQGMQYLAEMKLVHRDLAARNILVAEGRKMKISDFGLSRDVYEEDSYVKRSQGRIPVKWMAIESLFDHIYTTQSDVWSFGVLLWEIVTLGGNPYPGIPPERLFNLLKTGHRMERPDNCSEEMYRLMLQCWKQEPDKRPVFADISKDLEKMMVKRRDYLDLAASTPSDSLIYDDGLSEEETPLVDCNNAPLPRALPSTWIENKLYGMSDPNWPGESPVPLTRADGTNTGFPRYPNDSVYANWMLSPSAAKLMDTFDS
T3 sequence (P07949 whole entry G810C, the tested form may be a part): as the sequence (P07949 whole entry G810C, form open, the tested form may be a part) above
T6 sequence (P06241 whole entry): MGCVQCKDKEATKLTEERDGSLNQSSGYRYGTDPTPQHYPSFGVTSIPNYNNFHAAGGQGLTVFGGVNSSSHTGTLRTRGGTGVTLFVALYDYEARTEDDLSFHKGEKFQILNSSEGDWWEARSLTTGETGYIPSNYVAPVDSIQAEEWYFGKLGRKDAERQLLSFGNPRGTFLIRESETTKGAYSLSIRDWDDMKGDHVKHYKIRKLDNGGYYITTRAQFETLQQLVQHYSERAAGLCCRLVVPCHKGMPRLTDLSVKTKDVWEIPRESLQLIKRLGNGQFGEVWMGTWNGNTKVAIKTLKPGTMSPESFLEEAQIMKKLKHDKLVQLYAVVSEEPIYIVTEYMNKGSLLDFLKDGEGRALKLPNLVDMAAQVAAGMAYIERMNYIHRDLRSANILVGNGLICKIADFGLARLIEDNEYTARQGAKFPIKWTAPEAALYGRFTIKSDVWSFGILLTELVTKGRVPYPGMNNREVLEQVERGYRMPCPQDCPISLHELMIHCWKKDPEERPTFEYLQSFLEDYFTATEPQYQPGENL
T2 sequence (P07949 whole entry V804M, the tested form may be a part): as the sequence (P07949 whole entry G810C, form open, the tested form may be a part) above, with V804M, C810G counted along it
T8 sequence (P12931 whole entry): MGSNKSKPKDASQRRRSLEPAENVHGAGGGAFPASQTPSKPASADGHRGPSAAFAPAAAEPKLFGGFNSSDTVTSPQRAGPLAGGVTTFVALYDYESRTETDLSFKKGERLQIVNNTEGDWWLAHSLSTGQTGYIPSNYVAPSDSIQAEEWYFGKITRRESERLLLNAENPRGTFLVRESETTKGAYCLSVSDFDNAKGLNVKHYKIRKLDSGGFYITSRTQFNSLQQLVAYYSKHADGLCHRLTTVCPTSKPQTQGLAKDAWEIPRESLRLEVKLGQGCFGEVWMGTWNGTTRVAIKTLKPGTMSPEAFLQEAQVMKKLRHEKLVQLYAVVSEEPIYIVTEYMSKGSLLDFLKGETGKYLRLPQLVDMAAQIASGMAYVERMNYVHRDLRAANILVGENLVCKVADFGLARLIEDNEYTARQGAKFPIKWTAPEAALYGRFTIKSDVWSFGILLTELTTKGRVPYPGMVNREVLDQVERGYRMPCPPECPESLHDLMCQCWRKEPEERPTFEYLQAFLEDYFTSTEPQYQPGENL

C[C@H]1CNC(=O)c2cnn3cc4c(nc23)N(Cc2cc(F)cnc2O1)[C@@H]1CCC[C@@H]1O4 [Compound I, (3aR,11S,20aS)-7-fluoro-11-methyl-2,3,3a,12,13,20a-hexahydro-1H,5H-17,19-(metheno)cyclopenta[5,6][1,4]oxazino[3,4-i]pyrazolo[4,3-f]pyrido[3,2-l][1,4,8,10]oxatriazacyclotridecin-14(11H)-one]
GI50 [1]: 211 nM
IC50 [2]: 131 nM
IC50 [3]: 3 nM
IC50 [4]: < 0.5 nM
GI50 [5]: 1000 nM
GI50 [6]: < 15 nM
GI50 [7]: 0.25 nM
IC75 ([8]; Experiment 1): 28.8 nM
IC90 ([8]; Experiment 1): 86.4 nM
GI50 ([8]; Experiment 1): 9.6 nM
IC75 ([8]; Experiment 2): 39.9 nM
IC90 ([8]; Experiment 2): 120 nM
GI50 ([8]; Experiment 2): 13.3 nM
IC50 [9]: 1.9 nM
IC50 [10]: 2.7 nM
IC50 [11]: 1.5 nM
IC50 [12]: 1 nM
IC50 [13]: 2 nM
IC50 [14]: 0.7 nM
